The values that follow come from ChEMBL document CHEMBL1146193, “Increased genome instability in Escherichia coli lon mutants: relation to emergence of multiple-antibiotic-resistant (Mar) mutants caused by insertion sequence elements and large tandem genomic amplifications” (2007).

SMILES strings stand for the structures. In brackets after ≈: the same amount, converted by molar mass.

One may read the MIC as the smallest concentration in the dilution series that meets the test's criterion for growth inhibition.

Assay type in all cases: functional
Experiment [1] has as its system Escherichia coli. The experiment is described as follows: Antimicrobial activity against Escherichia coli M013 mutant with AG100 delta-(lon-hupB-ppiD) dupIS5 genotype.
Experiment [2] relates to Escherichia coli. The experiment is described as follows: Antimicrobial activity against Escherichia coli M043 mutant with AG100 lon4::IS186 marR::IS2 genotype.
In experiment [3] the test system is Escherichia coli. Kind of experiment: Antimicrobial activity against Escherichia coli M044 mutant with AG100 lon4::IS186 marR::IS genotype.
The subject of experiment [4] is Escherichia coli. Kind of experiment: Antimicrobial activity against Escherichia coli M064 mutant with AG100 lon1::IS186 acrR::IS genotype.
Experiment [5] deals with Escherichia coli. Kind of experiment: Antimicrobial activity against Escherichia coli M073 mutant with AG100 lon2::IS186 acrR::IS5 genotype.
The subject of experiment [6] is Escherichia coli. Kind of experiment: Antimicrobial activity against Escherichia coli M074 mutant with AG100 lon2::IS186 acrR::IS genotype.
Experiment [7] has as its system Escherichia coli. Kind of experiment: Antimicrobial activity against Escherichia coli M083 mutant with AG100 lon4::IS186 acrR::IS1 genotype.
Experiment [8] has as its system Escherichia coli. Kind of experiment: Antimicrobial activity against Escherichia coli M084 mutant AG100 lon4::IS186 genotype.
Experiment [9] deals with Escherichia coli. Kind of experiment: Antimicrobial activity against Escherichia coli M093 mutant with AG100 lon3::IS186 acrR::IS1 genotype.
Experiment [10] has as its system Escherichia coli. The experiment is described as follows: Antimicrobial activity against Escherichia coli M103 mutant with AG100 lon3::IS186 acrR-acrAB genotype.
The test system of experiment [11] is Escherichia coli. The experiment is described as follows: Antimicrobial activity against Escherichia coli M104 mutant with AG100 dupIS3 genotype.
In experiment [12] the test system is Escherichia coli. Kind of experiment: Antimicrobial activity against Escherichia coli M114 mutant with AG100 lon4::IS186 marR::IS2 genotype.
Experiment [13] has as its system Escherichia coli. Kind of experiment: Antimicrobial activity against Escherichia coli M124 mutant with AG100 lon4::IS186 acrR::IS genotype.
Experiment [14] concerns Escherichia coli. Kind of experiment: Antimicrobial activity against Escherichia coli AG112 mutant with AG100 marR genotype.
The subject of experiment [15] is Escherichia coli. The experiment is described as follows: Antimicrobial activity against Escherichia coli AG112 mutant with marR genotype after 250 generations in 5 ug/ml presence of tetracycline.
In experiment [16] the test system is Escherichia coli. The experiment is described as follows: Antimicrobial activity against Escherichia coli AG112 mutant with marR genotype after 125 generations in absence of tetracycline.
Experiment [17] relates to Escherichia coli. The experiment is described as follows: Antimicrobial activity against Escherichia coli AG100 mutant with argE3 thi-3 rpsL xyl mtl supE44 genotype.

As to `CC1(C)S[C@@H]2[C@H](NC(=O)[C@H](N)c3ccccc3)C(=O)N2[C@H]1C(=O)O` [AMPICILLIN], the MIC is 3 µg/mL (≈ 8.59 µM) with Escherichia coli [1]; 6 µg/mL (≈ 17.2 µM) against Escherichia coli [2]; 6 µg/mL (≈ 17.2 µM) in the experiment on Escherichia coli [3]; 6 µg/mL (≈ 17.2 µM) in the experiment with Escherichia coli [4]; 6 µg/mL (≈ 17.2 µM) against Escherichia coli [5]; 6 µg/mL (≈ 17.2 µM) against Escherichia coli [6]. Further, the minimal inhibitory concentration (MIC) with Escherichia coli [7] came out at 4 µg/mL (≈ 11.4 µM); in the experiment with Escherichia coli [8], 3 µg/mL (≈ 8.59 µM); in the experiment on Escherichia coli [9] it was 6 µg/mL (≈ 17.2 µM); against Escherichia coli [10], 4 µg/mL (≈ 11.4 µM); against Escherichia coli [11], 3 µg/mL (≈ 8.59 µM); in the experiment on Escherichia coli [12], 8 µg/mL (≈ 22.9 µM). The MIC against Escherichia coli [13] is 3 µg/mL (≈ 8.59 µM); in the experiment with Escherichia coli [14], 6 µg/mL (≈ 17.2 µM); in the experiment with Escherichia coli [15], 32 µg/mL; in the experiment on Escherichia coli [16], 12 µg/mL (≈ 34.3 µM).

For the compound `O=C(N[C@H](CO)[C@H](O)c1ccc([N+](=O)[O-])cc1)C(Cl)Cl` [CHLORAMPHENICOL], the MIC against Escherichia coli [17] stood at 4 µg/mL (≈ 12.4 µM); against Escherichia coli [2], 64 µg/mL (≈ 198 µM); in the experiment with Escherichia coli [3], 32 µg/mL (≈ 99 µM); with Escherichia coli [4] it was 32 µg/mL (≈ 99 µM); with Escherichia coli [5] it was 32 µg/mL (≈ 99 µM); with Escherichia coli [6], 48 µg/mL (≈ 149 µM). Moreover, the MIC in the experiment with Escherichia coli [7] was 32 µg/mL (≈ 99 µM); in the experiment on Escherichia coli [9], 32 µg/mL (≈ 99 µM); against Escherichia coli [10], 24 µg/mL (≈ 74.3 µM); against Escherichia coli [11] it was 32 µg/mL (≈ 99 µM); against Escherichia coli [12] it was 64 µg/mL (≈ 198 µM); in the experiment on Escherichia coli [13], 24 µg/mL (≈ 74.3 µM). Also, the minimal inhibitory concentration (MIC) in the experiment on Escherichia coli [14] came to 24 µg/mL (≈ 74.3 µM); with Escherichia coli [15], 256 µg/mL; in the experiment on Escherichia coli [16], 24 µg/mL (≈ 74.3 µM).

Consider `CCn1cc(C(=O)O)c(=O)c2ccc(C)nc21` [NALIDIXIC ACID], for which the MIC in the experiment with Escherichia coli [17] came out at 6 µg/mL (≈ 25.8 µM); against Escherichia coli [2], 8 µg/mL (≈ 34.4 µM); against Escherichia coli [3], 12 µg/mL (≈ 51.7 µM); in the experiment on Escherichia coli [4], 12 µg/mL (≈ 51.7 µM); with Escherichia coli [5] it was 8 µg/mL (≈ 34.4 µM); in the experiment on Escherichia coli [6] it was 8 µg/mL (≈ 34.4 µM). The MIC worked out at 8 µg/mL (≈ 34.4 µM) in the experiment on Escherichia coli [7]; 6 µg/mL (≈ 25.8 µM) in the experiment on Escherichia coli [8]; 8 µg/mL (≈ 34.4 µM) against Escherichia coli [9]; 6 µg/mL (≈ 25.8 µM) against Escherichia coli [10]; 8 µg/mL (≈ 34.4 µM) in the experiment with Escherichia coli [11]; 8 µg/mL (≈ 34.4 µM) against Escherichia coli [12]. Moreover, the minimum inhibitory concentration (MIC) worked out at 8 µg/mL (≈ 34.4 µM) in the experiment on Escherichia coli [13], 12 µg/mL (≈ 51.7 µM) in the experiment with Escherichia coli [14], 192 µg/mL in the experiment with Escherichia coli [15] and 24 µg/mL (≈ 103 µM) with Escherichia coli [16].

On to `CCn1cc(C(=O)O)c(=O)c2cc(F)c(N3CCNCC3)cc21` [NORFLOXACIN], for which the MIC was 0.02 µg/mL (≈ 0.0626 µM) in the experiment on Escherichia coli [17]; 0.13 µg/mL (≈ 0.407 µM) with Escherichia coli [1]; 0.38 µg/mL (≈ 1.19 µM) against Escherichia coli [2]; 0.25 µg/mL (≈ 0.783 µM) in the experiment on Escherichia coli [3]; 0.19 µg/mL (≈ 0.595 µM) in the experiment with Escherichia coli [4]; 0.19 µg/mL (≈ 0.595 µM) in the experiment with Escherichia coli [5]. The MIC came out at 0.19 µg/mL (≈ 0.595 µM) against Escherichia coli [6]; 0.25 µg/mL (≈ 0.783 µM) with Escherichia coli [7]; 0.13 µg/mL (≈ 0.407 µM) against Escherichia coli [8]; 0.25 µg/mL (≈ 0.783 µM) against Escherichia coli [9]; 0.25 µg/mL (≈ 0.783 µM) against Escherichia coli [10]; 0.25 µg/mL (≈ 0.783 µM) in the experiment on Escherichia coli [11]. Also, the MIC in the experiment on Escherichia coli [12] stood at 0.38 µg/mL (≈ 1.19 µM); against Escherichia coli [13] it was 0.25 µg/mL (≈ 0.783 µM); against Escherichia coli [14], 0.38 µg/mL (≈ 1.19 µM); with Escherichia coli [15] it was 2 µg/mL; with Escherichia coli [16], 0.75 µg/mL (≈ 2.35 µM).

Take `CO[C@H]1/C=C/O[C@@]2(C)Oc3c(C)c(O)c4c(O)c(c(/C=N/N5CCN(C)CC5)c(O)c4c3C2=O)NC(=O)/C(C)=C\C=C\[C@H](C)[C@H](O)[C@@H](C)[C@@H](O)[C@@H](C)[C@H](OC(C)=O)[C@@H]1C` [RIFAMPIN]: the minimal inhibitory concentration (MIC) against Escherichia coli [17] is 16 µg/mL (≈ 19.4 µM); against Escherichia coli [1], 16 µg/mL (≈ 19.4 µM); against Escherichia coli [2], 24 µg/mL (≈ 29.2 µM); against Escherichia coli [3] it was 24 µg/mL (≈ 29.2 µM); against Escherichia coli [4] it was 24 µg/mL (≈ 29.2 µM); in the experiment with Escherichia coli [5] it was 24 µg/mL (≈ 29.2 µM). In addition, the minimal inhibitory concentration (MIC) against Escherichia coli [6] worked out at 24 µg/mL (≈ 29.2 µM); in the experiment with Escherichia coli [7], 16 µg/mL (≈ 19.4 µM); with Escherichia coli [8] it was 16 µg/mL (≈ 19.4 µM); against Escherichia coli [9], 24 µg/mL (≈ 29.2 µM); with Escherichia coli [10] it was 24 µg/mL (≈ 29.2 µM); against Escherichia coli [11], 16 µg/mL (≈ 19.4 µM). For the same compound, the figures for the minimum inhibitory concentration (MIC) in the experiment on Escherichia coli [12] and in the experiment on Escherichia coli [13] were 24 µg/mL (≈ 29.2 µM) and 16 µg/mL (≈ 19.4 µM), respectively.

As for `CN(C)[C@@H]1C(O)=C(C(N)=O)C(=O)[C@@]2(O)C(O)=C3C(=O)c4c(O)cccc4[C@@](C)(O)[C@H]3C[C@@H]12` [TETRACYCLINE], the MIC was 2 µg/mL (≈ 4.5 µM) against Escherichia coli [17]; 6 µg/mL (≈ 13.5 µM) with Escherichia coli [1]; 16 µg/mL (≈ 36 µM) with Escherichia coli [2]; 4 µg/mL (≈ 9 µM) in the experiment with Escherichia coli [3]; 8 µg/mL (≈ 18 µM) against Escherichia coli [4]; 12 µg/mL (≈ 27 µM) in the experiment on Escherichia coli [5]. Also, the minimal inhibitory concentration (MIC) against Escherichia coli [6] came to 4 µg/mL (≈ 9 µM); with Escherichia coli [7], 4 µg/mL (≈ 9 µM); in the experiment with Escherichia coli [8], 4 µg/mL (≈ 9 µM); with Escherichia coli [9], 4 µg/mL (≈ 9 µM); in the experiment on Escherichia coli [10] it was 6 µg/mL (≈ 13.5 µM); in the experiment with Escherichia coli [11], 6 µg/mL (≈ 13.5 µM). Besides, the MIC in the experiment with Escherichia coli [12] was 12 µg/mL (≈ 27 µM); against Escherichia coli [13], 6 µg/mL (≈ 13.5 µM); against Escherichia coli [14] it was 8 µg/mL (≈ 18 µM); in the experiment on Escherichia coli [15] it was 128 µg/mL; in the experiment on Escherichia coli [16], 24 µg/mL (≈ 54 µM).
